According to patent US6770627B1, “Piperizine-4-phenyl derivatives as inhibitors of the interaction between mdm2 and p 53” (AstraZeneca AB, priority 1998, dated 2004):

Biological target: T1, p53/MDM2 interaction [MDM2 (1-118) 6 his and GST-p53(1-50)] (Homo sapiens, UniProt Q00987)
T1 construct: The human MDM2 N-terminal fragment encompassing amino acids 1-118; made in house; host or cells: E. coli BL21/DE3 (MDM2-6His); E. coli DH5alpha (GST-p53)
Test: Measurement of the inhibition of p53/MDM2 interaction (modified ELISA)
Assay type: binding
Conditions: 75 nM GST-p53 coated, 75 nM MDM2-6His, NTA-AP detection, optical density at 405 nm, compounds tested between 0 and 100 μM
Description: The inhibition of the p53/MDM2 interaction by compounds was measured using a modified ELISA assay using a histidine tagged MDM2 [MDM2 (1-118) 6 his], a p53 GST fusion protein (GST-p53) and a nickel chelate-alkaline phosphatase (NTA-AP).
The human MDM2 N-terminal fragment encompassing amino acids 1-118 and immediately followed by a C-terminal 6-histidine tag sequence and then a stop codon was generated by PCR from a human placental cDNA library. The PCR product was initially cloned into pCR2.1 vector (Invitrogen) following the manufacturer's protocol. DNA sequencing confirmed a MDM fragment sequence identical to that of published MDM2 (EMBL accession no. Z12020). The MDM2-6His fragment was then subcloned into pTB375 E. coli expression vector to produce the expression vector pTB375-MDM2-6His (1-118) clone no. 11. The pTB375 vector is a modified T7 (Studier) Expression vector. Expression grows were performed in E. coli strain BL21/DE3 (obtained from Novagen Inc.) and expression of the recombinant protein was induced by addition of IPTG (isopropyl-β-D-1-thiogalactopyranoside). MDM2 (1-118) 6 his was purified from E. coli lysates using Ni-NTA beads (Qiagen). […]
100 μl of 75 nM GST-p53 was added per well to a 96 well plate (Nunc Maxisorp) and the plate left at 4° C. overnight. […] The optical density of each well was measured at 405 nm. […]

T1 sequence (Q00987 1-118): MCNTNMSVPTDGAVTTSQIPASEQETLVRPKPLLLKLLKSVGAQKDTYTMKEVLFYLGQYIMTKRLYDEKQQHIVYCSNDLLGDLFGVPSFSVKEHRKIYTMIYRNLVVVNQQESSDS

IC50: ~4 µM
SMILES: Cc1occc1C(=O)N[C@@H](Cc1c[nH]c2ccccc12)C(=O)N1CCN(c2ccc([N+](=O)[O-])cc2)CC1 [Example 9, 2-Methyl-3-furoyl-Trp-piperazine-4-nitrophenyl]
